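Five compound concentrations were applied to cells in 96-well plates for 48 hours; endpoints were derived by simple linear interpolation of the resulting dose-response curve. GI50 is the concentration that inhibits growth by half. TGI marks complete inhibition of growth.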
Legend:
Experiment in all cases: NCI tumour cell line growth inhibition, 48 h
UACC-257 melanoma = system: UACC-257 melanoma
OVCAR-3 ovarian = system: OVCAR-3 ovarian
HS 578T breast = system: HS 578T breast
TK-10 renal = system: TK-10 renal
BT-549 breast = system: BT-549 breast
SN12C renal = system: SN12C renal
786-0 renal = system: 786-0 renal
RXF 393 renal = system: RXF 393 renal

Row | SMILES | GI50 (UACC-257 melanoma) [µM] | TGI (UACC-257 melanoma) [µM] | GI50 (OVCAR-3 ovarian) [µM] | TGI (OVCAR-3 ovarian) [µM] | GI50 (HS 578T breast) [µM] | TGI (HS 578T breast) [µM] | GI50 (TK-10 renal) [µM] | TGI (TK-10 renal) [µM] | GI50 (BT-549 breast) [µM] | TGI (BT-549 breast) [µM] | GI50 (SN12C renal) [µM] | TGI (SN12C renal) [µM] | GI50 (786-0 renal) [µM] | TGI (786-0 renal) [µM] | GI50 (RXF 393 renal) [µM] | TGI (RXF 393 renal) [µM]
1 | C[C@@H](CS[As](C)C)C(=O)N1CCC[C@H]1C(=O)O | 1.45 | 7.8 | 0.0736 | 0.223 | 0.255 | 0.796 | 0.268 | 1.11 | 0.487 | 2.31 | 0.2 | 1.03 | 0.0752 | 1.01 | 0.194 | 2.81
2 | O=C(NNc1ccccc1)c1ccc(Cl)c(Cl)c1 |  | 13.9 |  | > 94 |  | > 100 |  | > 100 |  | > 66.8 |  | > 100 |  | > 100 |  | > 84
3 | CCC[n+]1cc2cc3c(cc2c2c1-c1cc4c(cc1C2)OCO4)OCO3 (tested in a mixture with another compound) | 0.706 | 3.16 | 0.894 | 4.81 | 0.437 | 3.53 | 4.11 | 38.6 | 0.312 | 1.82 | 0.0664 | 0.777 | 0.46 | 10 |  | 
4 | CC(C)(O)CCc1cccc(C(=O)c2cnn(-c3ccc(F)cc3)c2N)c1 | > 25 | > 25 | > 25 | > 25 | > 25 | > 25 | > 25 | > 25 | > 25 | > 25 | > 25 | > 25 | > 25 | > 25 | > 25 | > 25
5 | Cc1ccc(NC(=S)C#N)c(C)c1 |  | > 100 |  | > 100 |  | > 100 |  | > 100 |  | > 100 |  | > 100 |  | > 100 |  | > 100
6 | CC(=O)c1ccc2c3c1[C@H]1O[C@H]1c1cccc(c1-3)[C@@H]1O[C@H]21 |  | 8.1 |  | 12.1 |  | 4.95 |  | > 51.2 |  | 4.53 |  | 3.86 | 1.74 | 4 |  | 3.82
7 | C#CCOc1cccc(Nc2ncnc3cc(NC(=O)C=C)ccc23)c1 | 32.3 | > 100 | 3.7 | 74.6 | 5.87 | 89.8 | 4.05 | 35.6 | 5.3 | > 100 | 7.63 | > 100 | 5.97 | 48.1 | 2.44 | 13.3
8 | Cc1ccc(-c2c3c(nn2-c2ccc(S(=O)(=O)NC(=O)NC4CCCCC4)cc2)-c2ccccc2C3)cc1 | 23.7 | 49.6 | 17.7 | 35.7 | 20.5 | 60.4 | 1.7 | 9.85 | 11.4 | 26.5 | 19.4 | 35.6 | 2.29 | 13.8 | 23.3 | 63.1
9 | O=C1c2ccn(CCCNC(CO)(CO)CO)c2C(=O)c2c1c(O)c1ccccc1c2O | 43.9 | > 78.1 | 6.71 | 21.6 | 1.22 |  | 1.32 | 22.6 | 43.9 | > 90.2 | 3.16 | 17.9 | 7.94 | 26.9 | 24.2 | > 61
10 | C[C@@]1(C(=O)O)CCC[C@]2(C)C1CC[C@]13C[C@@](O)(CO)[C@](O)(CC[C@]12O)C3 (some centres not stated) | > 100 | > 100 | > 100 | > 100 | > 100 | > 100 | > 100 | > 100 | > 100 | > 100 | > 100 | > 100 | > 100 | > 100 | > 100 | > 100
11 | O=C(NCCCl)Nc1ccccc1 |  | > 100 |  | > 100 |  | > 100 |  |  |  |  |  | > 100 |  | > 100 |  | > 100
12 | COc1cc2c(NC3CCN(C(C)C)CC3)nc(C3CCCCC3)nc2cc1OCCCN1CCCC1 | 1.67 | 3.25 | 6.98 | 20.4 | 4.11 | 22.8 | 2.15 | 5.54 | 3.85 | 15.3 | 12 | 25.1 | 6.14 | 17.7 | 1.8 | 4.27
13 | Cc1cc(-c2nc3n(c2/C=N/N=C(N)N)CCS3)c(C)s1 |  |  | 21.9 | 36.3 |  |  | 33.6 | > 100 | 23.1 | 42.5 | 14.9 | 28.9 | 17.1 | 30.8 |  | 
14 | NC(Cc1cccnn1)C(=O)O (configuration not stated) |  | > 100 |  | > 100 |  | > 100 |  | > 100 |  | > 100 |  | > 100 |  | > 100 |  | > 100
15 | O=C1CC(Cc2n[nH]c3c2CCCC3)CC(=O)N1 |  | > 100 |  | > 100 |  |  |  | > 100 |  | > 100 |  | > 100 |  | > 100 |  | > 100
16 | COC(=O)c1ccc(NC(=O)c2ccc(NC3=C(Cl)C(=O)N(Cc4ccccc4)C3=O)cc2)cc1 | 27.3 | 76.5 | 14 | 26.9 | 35.9 | > 100 |  |  | 16.4 | 32.1 | 8.13 | 21.7 | 10.9 | 22.9 | 22.9 | 48.3
17 | COc1ccc2c(CCCc3ccc(Cl)cc3Cl)c3[n+](cc2c1OC)CCc1cc2c(cc1-3)OCO2 |  |  |  |  |  |  |  |  | 0.365 | 1.4 |  |  | 1.27 | 2.74 |  | 
18 | O=C(N=Nc1c(Cl)c(O)c2ccccc2c1O)C(=O)Nc1cccc(C(F)(F)F)c1 |  |  | 1.77 | 4.64 | 2.6 | 8.6 | 14.2 | 27.4 | 3.74 | 12.5 | 1.77 | 3.79 | 12.6 | 25.1 | 5.81 | 18.8
19 | C(=C\c1ccncc1)/c1ccncc1 | > 100 | > 100 | > 100 | > 100 |  |  | > 100 | > 100 | > 100 | > 100 | > 100 | > 100 | > 100 | > 100 | > 100 | > 100

Reference: PubChem BioAssay (NCI)
